Results reported in patent US11098010B2 (priority 2017, dated 2021).
Where a name gives a salt, the structure may show the parent alone.

system: HBV rcDNA in HepDE19 cells; test: HepDE19 assay with bDNA quantitation of HBV rcDNA; format: cell-based, hepatitis B virus (HBV); conditions: HepDE19 cells, inhibition of rcDNA formation, 7 day incubation, top concentration 25 μM; read-out: DE-19 bDNA EC50

| SMILES | EC50 |
| --- | --- |
| COC(=O)NC1c2cccc(C(=O)Nc3ccc(F)c(F)c3)c2CC1O (stereo not shown) [Compound 52, O-methyl, N-(4-((3,4-difluorophenyl)carbamoyl)-2-hydroxy-2,3-dihydro-1H-inden-1-yl) carbamate] | 19 µM |
| O=C(N[C@@H]1c2cccc(C(=O)Nc3ccc(F)c(F)c3)c2C[C@H]1O)OCc1ccccn1 [Compound 60, O-pyridin-2-ylmethyl, N-((1R,2R)-4-((3,4-difluorophenyl)carbamoyl)-2-hydroxy-2,3-dihydro-1H-inden-1-yl) carbamate] | > 25 µM |

same assay, conditions: Hepatitis B virus, HepDE19, 168 h, HepDE19 cells, inhibition of rcDNA formation, 7 day incubation, top concentration 25 μM; read-out: DE-19 bDNA EC50

| SMILES | EC50 |
| --- | --- |
| O=C(N[C@@H]1c2cccc(C(=O)Nc3ccc(F)c(Cl)c3)c2C[C@H]1O)OCc1ccccn1 [Compound 51, O-Pyridin-2-ylmethyl, N-((1R,2R)-4-((3-chloro-4-fluorophenyl)carbamoyl)-2-hydroxy-2,3-dihydro-1H-inden-1-yl) carbamate] | 0.87 µM |
| CNC(=O)NC1c2cccc(C(=O)Nc3ccc(F)c(F)c3)c2CC1O (stereo not shown) [Compound 53, N-(3,4-difluorophenyl)-2-hydroxy-1-(3-methylureido)-2,3-dihydro-1H-indene-4-carboxamide] | > 25 µM |

same assay, conditions: Hepatitis B virus, HepDE19, 168 h, read-out: DE-19 bDNA EC50 (μM), HepDE19 cells, inhibition of rcDNA formation, 7 day incubation, top concentration 25 μM

| SMILES | EC50 |
| --- | --- |
| COc1cnc(N[C@H]2CCc3c(C(=O)Nc4ccc(F)c(Cl)c4)ccc(F)c32)nc1 [Compound 49, (S)—N-(3-Chloro-4-fluorophenyl)-7-fluoro-1-((5-methoxypyrimidin-2-yl)amino)-2,3-dihydro-1H-indene-4-carboxamide] | 0.17 µM |
| O=C(Nc1ccc(F)c(Cl)c1)c1ccc(F)c2c1CC[C@@H]2Nc1nccc(-c2ccccn2)n1 [Compound 50, (S)—N-(3-Chloro-4-fluorophenyl)-7-fluoro-1-((4-(pyridin-2-yl)pyrimidin-2-yl)amino)-2,3-dihydro-1H-indene-4-carboxamide] | 1 µM |
| CC(C)(C)OC(=O)N1CC(F)(F)CC1COC(=O)N[C@H]1CCc2c(C(=O)Nc3ccc(F)c(Cl)c3)ccc(F)c21 (stereo partly drawn) [Compound 54, tert-Butyl 2-(((((S)-4-((3-chloro-4-fluorophenyl)carbamoyl)-7-fluoro-2,3-dihydro-1H-inden-1-yl)carbamoyl)oxy)methyl)-4,4-difluoropyrrolidine-1-carboxylate] | 0.99 µM |
| O=C(N[C@H]1CCc2c(C(=O)Nc3ccc(F)c(Cl)c3)ccc(F)c21)OCC1CC(F)(F)CN1 (stereo partly drawn) [Compound 56, O-(4,4-Difluoropyrrolidin-2-yl)methyl, N—((S)-4-((3-chloro-4-fluorophenyl)carbamoyl)-7-fluoro-2,3-dihydro-1H-inden-1-yl) carbamate Hydrochloride] | 0.5 µM |
| CC(=O)N1CC(F)(F)CC1COC(=O)N[C@H]1CCc2c(C(=O)Nc3ccc(F)c(Cl)c3)ccc(F)c21 (stereo partly drawn) [Compound 61, O-(1-Acetyl-4,4-difluoropyrrolidin-2-yl)methyl, N—((S)-4-((3-chloro-4-fluorophenyl)carbamoyl)-7-fluoro-2,3-dihydro-1H-inden-1-yl) carbamate] | 0.4 µM |

same assay, conditions: read-out: DE-19 bDNA EC50; HepDE19 cells, inhibition of rcDNA formation, 7 day incubation, top concentration 25 μM

| SMILES | EC50 |
| --- | --- |
| COC(=O)NC1CSc2c(C(=O)Nc3ccc(F)c(F)c3)ccc(F)c21 (stereo not shown) [Compound 55, O-Methyl, N-(7-((3,4-difluorophenyl)carbamoyl)-4-fluoro-2,3-dihydrobenzo[b]thiophen-3-yl) carbamate] | 1.2 µM |
| COC(=O)NC1CSc2c(C(=O)Nc3ccc(F)c(F)c3)ccc(F)c21 (stereo not shown) [Compound 57, O-Methyl, N-(7-((3,4-difluorophenyl)carbamoyl)-4-fluoro-2,3-dihydrobenzo[b]thiophen-3-yl) carbamate] | > 25 µM |
| COC(=O)NC1CSc2c(C(=O)Nc3ccc(F)c(Cl)c3)ccc(F)c21 (stereo not shown) [Compound 58, O-Methyl, N-(7-((3-chloro-4-fluorophenyl)carbamoyl)-4-fluoro-2,3-dihydrobenzo[b]thiophen-3-yl) carbamate] | 0.79 µM |
| COC(=O)NC1CSc2c(C(=O)Nc3ccc(F)c(Cl)c3)ccc(F)c21 (stereo not shown) [Compound 59, O-Methyl, N-(7-((3-chloro-4-fluorophenyl)carbamoyl)-4-fluoro-2,3-dihydrobenzo[b]thiophen-3-yl) carbamate] | 12 µM |
